Measurements as given in patent US7862815B2, “Methods for inhibiting angiogenesis with inhibitors of proadrenomedullin N-terminal 20 peptide (PAMP)” (The United States of America as represented by the …, priority 2002, dated 2011).

What was measured:
H1299 = assay: DIVAA, angiogenesis induced by tumor cells embedded in matrigel; format: in vivo, human; details: H1299, 10,000 cells per angioreactor, 100 nM PAMP(12-20)
Procedure: (§1) Analysis and quantitation of angiogenesis was done using DIVAA as previously described (Martinez et al., J. Natl. Cancer Inst., 21; 94(16):1226-37, 2002; Guedez et al., Am. J. Pathol. 162, 1431-1439, 2003). Briefly, 10 mm long surgical-grade silicone tubes with only one end open (angioreactors) were filled with 20 μl of matrigel alone or mixed with AM, bFGF, VEGF, PAMP, and/or PAMP(12-20) at the indicated concentrations. Human lung cancer cell lines (see below) were also premixed with matrigel alone or in combination with PAMP(12-20) at 10,000 cells per angioreactor. After the matrigel solidified, the angioreactors were implanted into the dorsal flanks of anesthetized athymic nude mice (NCI colony). After eleven days, the mice were injected intravenously with 25 mg/ml FITC-dextran (100 μl/mouse, Sigma) 20 minutes before removing the angioreactors. Photographs of the implants were taken for visual examination of angiogenic response. Quantitation of neovascularization in the angioreactors was determined as the amount of fluorescence trapped in the implants and was measured in a HP Spectrophotometer (Perkin Elmer).
(§2) The human cancer cell lines used, A549 and H1299, were obtained from the American Tissue Culture Collection (ATCC) and fed with RPMI164O containing 10% fetal bovine serum (Invitrogen). […]

A549 = assay: as above; format: in vivo, human; details: A549, 10,000 cells per angioreactor, 100 nM PAMP(12-20)
Procedure: as §1, §2

athymic nude mice = assay: DIVAA with angioreactors, Example 2 (peptides in matrigel); format: in vivo
Procedure: as §1
To further characterize this observation, an […] assay was employed that allows for more precise quantitation of angiogenic properties: the directed […] angiogenesis assay or DIVAA (Martinez et al., J. Natl. Cancer Inst., 21; 94(16): 1226-37, 2002; Guédez et al., Am. J. Pathol. 162, 1431-1439, 2003). The assay involves implanting small silicone capsules carrying the test substances under the skin of nude mice. After eleven days, the mice are injected with a specific amount of FITC-dextran, and the volume of blood circulating through the implant is quantified by measuring the fluorescence in the capsule. In addition, the new blood vessels growing into the silicone tube can be seen directly by transparency (FIG. 4A-F). […] The extent of the angiogenic response can be seen clearly when this response is compared with the negative control (FIG. 4A). The angiogenic response elicited by PAMP was dose-dependent (FIG. 4C-G). When compared to AM and VEGF responses at equimolar concentrations, a clear difference was observed.

[1] = tested on: Human dermal microvascular endothelial cells; assay: Calcium measurements (ATP-induced calcium flux); format: cell-based; details: 100 nM PAMP(12-20) with 10 nM PAMP and 1 mM ATP
Procedure: Human dermal microvascular endothelial cells were obtained from Cell Applications, Inc. and cultured in 96-well plates at 1.0×10^5 cells per well. The cells were loaded for 60 minutes at room temperature with the fluorescent dye FLIPR (Molecular Devices) and then transferred to the FlexStation II (Molecular Devices) for analysis. The test compounds were prepared in another plate at a concentration of 5× and were added to the proper wells by the robotic arm of the FlexStation II. Fluorescence was measured every five seconds in each well and recorded. One mM ATP (Sigma) was used as a calcium agonist (Lau et al., Life Sci. 73, 20 19-2028, 2003).

A549 tumors = assay: Xenograft experiment; format: in vivo, athymic nude mice
Procedure: Twenty female athymic nude mice from the NIH colony in Frederick (MD) were injected subcutaneously with 1.0×10^7 A549 cells/mouse. Two weeks later, all the mice had developed palpable tumors under the skin and at this time they were divided in two groups. Three times a week, each individual tumor was measured (length, height, thickness) and every mouse received an intratumoral injection, according to their group. Group 1 (control) received 100 μl PBS. […] When the tumor burden became unbearable, the mice were sacrificed.

proadrenomedullin N-terminal 20 peptide (12-20) (KWNKWALSR; listed as Homo sapiens) [PAMP(12-20), peptide which comprises only amino acids 12-20 of PAMP]
inhibition of tumor cell-induced angiogenic response (H1299): completely blocked | inhibition of tumor cell-induced angiogenic response (A549): completely blocked | inhibition of the angiogenic response elicited by PAMP (athymic nude mice; 1 nM PAMP with 100 nM PAMP(12-20) (hundred-fold excess)): inhibited angiogenesis to the basal levels | inhibition of the angiogenic response elicited by PAMP (athymic nude mice; 1 nM full-length PAMP with increasing doses of PAMP(12-20)): dose-dependent inhibition | effect on basal angiogenesis (athymic nude mice; PAMP(12-20) by itself): did not modify basal angiogenesis | reversal of PAMP block of ATP-induced calcium response [1]: initial response was recovered | treatment time after which statistical differences in tumor size were observed (A549 tumors; 1 mM PAMP(12-20) versus PBS, ten mice per group): nine | tumor growth versus PBS control (A549 tumors; 1 mM PAMP(12-20), 100 μl intratumoral injection three times a week): slower rate of tumor growth
